The text below walks through data of patent US20220145316A1, “CANCER IMMUNOTHERAPY” (priority 2019, published 2022).

*1 amine or outer side, *2 acyl side, *3 side chain or, on linkers, in order; H or OH if unused. Where a SMILES comes first, the peptide text is derived from it. [ ]: non-standard residue; d: D form. The star is where a group is joined. Dolaproine = CO[C@@H]([C@@H]1CCCN1)[C@@H](C)C(=O)O; Hexanoyl(6-maleimido) = O=C1C=CC(=O)N1CCCCCC(=O)*; Dil = CC[C@H](C)[C@H](NC)[C@@H](CC(=O)O)OC; PABC = O=C(OCc1ccc(N[*:1])cc1)[*:2]; X1 = C[C@@H](N*)[C@@H](O)c1ccccc1; Cit = NC(=O)NCCC[C@H](N)C(=O)O; NMeV = CN[C@H](C(=O)O)C(C)C

One series deals with Raji cells. The note with it: read-out: IC50 (cytotoxicity), 72 hours.
A further series relates to Daudi cells. Particulars: read-out: IC50 (cytotoxicity), 72 hours.
The next series concerns normal donor B cells. Particulars: normal B cells from healthy human donor, 72 hours.
In series [1] the test system is Raji-luc B lymphoma cells. Nature of the series: Drug delivery study in Raji B cell lymphoma model (survival, bioluminescence, kidney histology). Format: in vivo, NSG mice. How it is done: Drug delivery study and histology: NSG male mice (7 weeks) were inoculated with 1×10^6 Raji-luc cells intravenously. […] For the first study, dosing started on day 3 and drugs/drug delivery system were injected i.p. every 4 days for a total of 6 injections. For the second study, dosing started on day 11 and drugs/drug delivery system were injected i.p. every 4 days for a total of 3 injections. For both studies, weekly bioluminescence imaging using the IVIS Spectrum was used to monitor lymphoma progression. […] Tissues were harvested for histology using H&E staining to show tumor burden or lack thereof.
Male NSG mice were injected intravenously with luciferase expressing Raji cells and monitored for lymphoma engraftment and progression using bioluminescence imaging. Tumor engrafted mice were randomly assigned to the treatment groups (n=5).
The MMAE dose was selected based on the fact that the known maximum tolerated dose (MTD) of free MMAE is 0.25-0.5 mg kg^−1 after a single administration. A dose of 0.125 mg/kg was chosen to allow for multiple treatments. Mice injected intravenously with Raji cells develop hind leg paralysis (due to the infiltration of neoplastic cells into the spinal canal) and/or lose weight prior to death. Therefore, hind leg paralysis or >15% loss in body weight were considered experimental endpoints at which mice were euthanized.

The conditions of series [2]: after a single administration; cited from earlier work.

Experimental for Daudi cells: (§1) Cell viability and proliferation in cell lines were estimated using a resazurin based assay (Prestoblue, Thermo Scientific). Cell viability in healthy B cells was measured using 7-AAD (Cayman Chemical Company, Ann Harbor, Mich.) cell exclusion using flow cytometric analysis gated on the B cell fraction (CD19-PE, BD Biosciences, Franklin Lakes, N.J.).
Experimental for Raji cells: as §1
Experimental for normal donor B cells: as §1

By IC50 is commonly meant the concentration needed to halve the response being measured. Regarding `CC[C@H](C)[C@@H]([C@@H](CC(=O)N1CCC[C@H]1[C@H](OC)[C@@H](C)C(=O)N[C@H](C)[C@@H](O)c1ccccc1)OC)N(C)C(=O)[C@@H](NC(=O)[C@H](C(C)C)N(C)C(=O)OCc1ccc(NC(=O)[C@H](CCCNC(N)=O)NC(=O)[C@@H](NC(=O)CCCCCN2C(=O)C=CC2=O)C(C)C)cc1)C(C)C` [vcMMAE] ({Hexanoyl(6-maleimido)}-V[Cit][PABC][NMeV]V[Dil][Dolaproine]-X1), the IC50 with Raji cells was determined as 160 nM; in the series with Daudi cells it was 80 nM. In addition, the “cytotoxicity towards non-dividing normal donor B cells” value in the series with normal donor B cells is recorded as “no cytotoxicity”.

On to `CC[C@H](C)[C@@H]([C@@H](CC(=O)N1CCC[C@H]1[C@H](OC)[C@@H](C)C(=O)N[C@H](C)[C@@H](O)c1ccccc1)OC)N(C)C(=O)[C@@H](NC(=O)[C@@H](NC)C(C)C)C(C)C` [MMAE, (S)-N-((3R,4S,5S)-1-((S)-2-((1R,2R)-3-(((1S,2R)-1-hydroxy-1-phenylpropan-2-yl)amino)-1-methoxy-2-methyl-3-oxopropyl)pyrrolidin-1-yl)-3-methoxy-5-methyl-1-oxoheptan-4-yl)-N,3-dimethyl-2-((S)-3-methyl-2-(methylamino)butanamido)butanamide] (H-[NMeV]V[Dil][Dolaproine]-X1), for which, in series [1] (H&E, PVX and MMAE mice when moribund, PVX-vcMMAE mice at end of study period), the “histological analysis of kidney sections, lymphoma cell infiltration” value is recorded as “reduced lymphoma cell infiltration”. The “lymphoma progression by bioluminescence imaging” value in series [1] (first study: 6 i.p. injections every 4 days from day 3) is listed as “partially limited lymphoma progression”. Moreover, the median survival in series [1] (first study: 6 i.p. injections every 4 days from day 3, MMAE 0.125 mg/kg, PVX-vcMMAE 0.4 mg/kg, PVX 1 mg, PBS 45 days) was 61 days; in series [1] (second study: 3 i.p. injections every 4 days from day 11, PBS 42 days), 39 days. In addition, in series [2], the “maximum tolerated dose (MTD)” value was 0.25 to 0.5 mg/kg.
